# Read-outs that look alike come from different tables or passages of the source.
# How the values were obtained:
# LoVo = test: Inhibition of cells growth by colorimetric assay (SRB), LoVo; format: cell-based
# Method in brief: (§1)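 48 h SRB cytotoxicity assay; compound range 10–10^−8 μg/ml; seeding 5×10^3 cells/well, 18 h pre-attachment; OD 490 nm; GI, TGI, LC from triplicate means ± SD.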
# Liver [1] = test: In vitro toxicity, Liver
# Excerpt: (§3) Toxicity was asssessed by the methods reported in Toxicology in Vitro, 15 (2001) 571-577, J. Luber Narod et al.: “Evaluation of the use of in vitro methodolodies as tools for screening new compounds for potential in vivo toxicity”.
# Kidney [2] = test: In vitro toxicity, Kidney
# Excerpt: as §3
# Myelo [3] = test: In vitro toxicity, Myelo
# Excerpt: as §3
# A-549 [4] = test: Inhibition of cells growth by colorimetric assay (SRB), A-549; format: cell-based
# Method in brief: as §1
# LoVo-Dox = test: Inhibition of cells growth by colorimetric assay (SRB), LoVo-Dox; format: cell-based
# Method in brief: as §1
# LNCaP = test: Inhibition of cells growth by colorimetric assay (SRB), LNCaP; format: cell-based
# Method in brief: as §1
# HT-29 [5] = test: Inhibition of cells growth by colorimetric assay (SRB), HT-29; format: cell-based
# Method in brief: as §1
# IGROV-ET = test: Inhibition of cells growth by colorimetric assay (SRB), IGROV-ET; format: cell-based
# Method in brief: as §1
# HMEC1 = test: Inhibition of cells growth by colorimetric assay (SRB), HMEC1; format: cell-based
# Method in brief: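 Compound in DMSO/EtOH/PBS vehicle was applied at 10 to 10^−8 μg/ml to attached cells (5×10^3/well, 18 h) for 48 h. Cells were then fixed with cold TCA and stained with 0.4% SRB in 1% acetic acid.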
# PANC-1 = test: Inhibition of cells growth by colorimetric assay (SRB), PANC-1; format: cell-based
# Method in brief: as §1
# SK-MEL-28 = test: Inhibition of cells growth by colorimetric assay (SRB), SK-MEL-28; format: cell-based
# Method in brief: as §1
# K-562 = test: Inhibition of cells growth by colorimetric assay (SRB), K-562; format: cell-based
# Method in brief: as §1
# Skeletal [6] = test: In vitro toxicity, Skeletal
# Excerpt: as §3
# SK-OV-3 = test: Inhibition of cells growth by colorimetric assay (SRB), SK-OV-3; format: cell-based
# Method in brief: as §1
# DU-145 [7] = test: Inhibition of cells growth by colorimetric assay (SRB), DU-145; format: cell-based
# Method in brief: as §1
# IGROV-1 = test: Inhibition of cells growth by colorimetric assay (SRB), IGROV-1; format: cell-based
# Method in brief: as §1
# Heart [8] = test: In vitro toxicity, Heart
# Excerpt: as §3
# SK-BR-3 = test: Inhibition of cells growth by colorimetric assay (SRB), SK-BR-3; format: cell-based
# Method in brief: as §1
# P-388 = test: Inhibition of cell growth by counting cells, P-388; format: cell-based, mouse; details: Mus musculus, P388, 72 h; three days of incubation; read-out: IC50 (molar) P-388
# Method in brief: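 Mouse P-388 lymphoid neoplasm suspension cells seeded at 1×10^4 cells/well in EMEM 5% FCS containing graded sample concentrations, in duplicate alongside drug-free growth controls. Cells counted by Coulter counter; % growth vs untreated gives dose-response curves, IC50 = concentration producing 50% growth inhibition.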
# Skeletal [9] = tested on: Skeletal
# Excerpt: as §3
# MEL-28 = test: Inhibition of cell growth by counting cells, MEL-28; format: cell-based, human; details: Homo sapiens, SK-MEL-28, 72 h; three days of incubation; read-out: IC50 (molar) MEL-28
# Method in brief: (§2)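 Human tumor cells were seeded at 1×10^4 cells per well in EMEM with 5% FCS containing graded compound concentrations, in duplicate, and incubated three days at 37° C, 5% CO2. Cells were then trypsinized and counted electronically; IC50 came from dose-response curves of percent growth versus drug-free controls.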
# Heart [10] = tested on: Heart
# Excerpt: as §3
# Kidney [11] = tested on: Kidney
# Excerpt: as §3
# HT-29 [12] = test: Inhibition of cell growth by counting cells, HT-29; format: cell-based, human; details: Homo sapiens, HT-29, 72 h; three days of incubation; read-out: IC50 (molar) HT-29
# Method in brief: as §2
# DU-145 [13] = test: Inhibition of cell growth by counting cells, DU-145; format: cell-based, human; details: Homo sapiens, DU-145, 72 h; three days of incubation; read-out: IC50 (molar) DU-145
# Method in brief: as §2
# Myelo [14] = tested on: Myelo
# Excerpt: as §3
# tumor cell culture = test: Bioassays for antitumor screening, cell line not given; format: cell-based; details: cell line not stated
# Excerpt: Bioassays for Antitumor Screening
# The finality of these assays is to interrupt the growth of a “in vitro” tumor cell culture by means a continued exhibition of the cells to the sample to be testing.
# A-549 [15] = test: Inhibition of cell growth by counting cells, A-549; format: cell-based, human; details: Homo sapiens, A549, 72 h; three days of incubation; read-out: IC50 (molar) A-549
# Method in brief: as §2
# Liver [16] = tested on: Liver
# Excerpt: as §3
compound,measurement,setting,value
COc1cc2c(cc1O)CCN[C@]21CS[C@@H]2c3c(OC(=O)C(F)(F)C(F)(F)C(F)(F)F)c(C)c4c(c3[C@H](COC1=O)N1C2[C@H]2c3c(cc(C)c(OC)c3O)C[C@@H]([C@@H]1O)N2C)OCO4 (stereo partly shown) [Compound 167],GI50,"LoVo; Homo sapiens, LoVo, 48 h, read-out: LOVO GI50",33.6 nM
same,LC50 (concentration for 50% cell killing),"LoVo; Homo sapiens, LoVo, 48 h, read-out: LOVO LC50, SRB assay, 48 hours exposure",190 nM
same,LOVO TGI,"LoVo; SRB assay, 48 hours exposure",6.74E-08
same,Toxicity Data Liver,Liver [1],4.83E-07
same,Toxicity Data Kidney,Kidney [2],2.77E-07
same,Toxicity Data Myelo,Myelo [3],1.01E-06
same,GI50,"A-549 [4]; Homo sapiens, A549, 48 h, read-out: A-549 GI50",28.3 nM
same,LC50 (concentration for 50% cell killing),"A-549 [4]; Homo sapiens, A549, 48 h, read-out: A-549 LC50, SRB assay, 48 hours exposure",482 nM
same,A-549 TGI,"A-549 [4]; SRB assay, 48 hours exposure",6.54E-08
same,GI50,"LoVo-Dox; Homo sapiens, 48 h, read-out: LOVO-DOX GI50",416 nM
same,CC50,"LoVo-Dox; Homo sapiens, 48 h, read-out: LOVO-DOX LC50, SRB assay, 48 hours exposure",10900 nM
same,LOVO-DOX TGI,"LoVo-Dox; SRB assay, 48 hours exposure",1.58E-06
same,GI50,"LNCaP; Homo sapiens, LNCaP, 48 h, read-out: LNCAP GI50, SRB assay, 48 hours exposure",19.7 nM
same,CC50,"LNCaP; Homo sapiens, LNCaP, 48 h, read-out: LNCAP LC50, SRB assay, 48 hours exposure",73.6 nM
same,LNCAP TGI,"LNCaP; SRB assay, 48 hours exposure",3.80E-08
same,GI50,"HT-29 [5]; Homo sapiens, HT-29, 48 h, read-out: HT-29 GI50",28.9 nM
same,LC50 (concentration for 50% cell killing),"HT-29 [5]; Homo sapiens, HT-29, 48 h, read-out: HT-29 LC50, SRB assay, 48 hours exposure",10900 nM
same,HT-29 TGI,"HT-29 [5]; SRB assay, 48 hours exposure",1.51E-07
same,GI50,"IGROV-ET; Homo sapiens, 48 h, read-out: IGROV-ET GI50",77.6 nM
same,CC50,"IGROV-ET; Homo sapiens, 48 h, read-out: IGROV-ET LC50, SRB assay, 48 hours exposure",5240 nM
same,IGROV-ET TGI,"IGROV-ET; SRB assay, 48 hours exposure",9.05E-07
same,GI50,"HMEC1; Homo sapiens, HMEC-1, 48 h, read-out: HMEC-1 GI50",51.5 nM
same,LC50,"HMEC1; Homo sapiens, HMEC-1, 48 h, read-out: HMEC-1 LC50, SRB assay, 48 hours exposure",10900 nM
same,HMEC-1 TGI,"HMEC1; SRB assay, 48 hours exposure",3.49E-07
same,GI50,"PANC-1; Homo sapiens, PANC-1, 48 h, read-out: PANC-1 GI50",46.5 nM
same,LC50 (concentration for 50% net cell kill),"PANC-1; Homo sapiens, PANC-1, 48 h, read-out: PANC-1 LC50, SRB assay, 48 hours exposure",10900 nM
same,PANC-1 TGI,"PANC-1; SRB assay, 48 hours exposure",1.09E-07
same,GI50,"SK-MEL-28; Homo sapiens, SK-MEL-28, 48 h, read-out: MEL-28 GI50",23.8 nM
same,CC50,"SK-MEL-28; Homo sapiens, SK-MEL-28, 48 h, read-out: MEL-28 LC50, SRB assay, 48 hours exposure",107 nM
same,MEL-28 TGI,"SK-MEL-28; SRB assay, 48 hours exposure",5.06E-08
same,GI50,"K-562; Homo sapiens, K562, 48 h, read-out: K-562 GI50",7 nM
same,LC50 (50% cell killing),"K-562; Homo sapiens, K562, 48 h, read-out: K-562 LC50, SRB assay, 48 hours exposure",71.7 nM
same,K-562 TGI,"K-562; SRB assay, 48 hours exposure",9.64E-09
same,Toxicity Data Skeletal,Skeletal [6],1.09E-07
same,GI50,"SK-OV-3; Homo sapiens, SK-OV-3, 48 h, read-out: SK-OV3 GI50",40.2 nM
same,LC50,"SK-OV-3; Homo sapiens, SK-OV-3, 48 h, read-out: SK-OV3 LC50, SRB assay, 48 hours exposure",10900 nM
same,SK-OV3 TGI,"SK-OV-3; SRB assay, 48 hours exposure",1.48E-07
same,GI50,"DU-145 [7]; Homo sapiens, DU-145, 48 h, read-out: DU-145 GI50",48.8 nM
same,CC50,"DU-145 [7]; Homo sapiens, DU-145, 48 h, read-out: DU-145 LC50, SRB assay, 48 hours exposure",10900 nM
same,DU-145 TGI,"DU-145 [7]; SRB assay, 48 hours exposure",1.01E-07
same,GI50,"IGROV-1; Homo sapiens, IGROV-1, 48 h, read-out: IGROV GI50",6.46 nM
same,CC50,"IGROV-1; Homo sapiens, IGROV-1, 48 h, read-out: IGROV LC50, SRB assay, 48 hours exposure",89.2 nM
same,IGROV TGI,"IGROV-1; SRB assay, 48 hours exposure",2.49E-08
same,Toxicity Data Heart,Heart [8],4.28E-07
same,GI50,"SK-BR-3; Homo sapiens, SK-BR-3, 48 h, read-out: SK-BR3 GI50",17.6 nM
same,CC50,"SK-BR-3; Homo sapiens, SK-BR-3, 48 h, read-out: SK-BR3 LC50, SRB assay, 48 hours exposure",238 nM
same,SK-BR3 TGI,"SK-BR-3; SRB assay, 48 hours exposure",5.19E-08
CCCCCCCCCCCCCCCC(=O)Oc1c(C)c2c(c3c1[C@H]1SC[C@]4(NCCc5cc(O)c(OC)cc54)C(=O)OC[C@@H]3N3C1[C@H]1c4c(cc(C)c(OC)c4O)C[C@@H]([C@@H]3O)N1C)OCO2 (stereo partly shown) [Compound 170],IC50,P-388,52.2 nM
same,Toxicity Data Skeletal,Skeletal [9],3.29E-07
same,IC50,MEL-28,52.2 nM
same,Toxicity Data Heart,Heart [10],non toxic
same,Toxicity Data Kidney,Kidney [11],3.01E-07
same,IC50,HT-29 [12],52.2 nM
same,IC50,DU-145 [13],52.2 nM
same,Toxicity Data Myelo,Myelo [14],non toxic
same,antitumor activity (in words),tumor cell culture,active
same,IC50,A-549 [15],52.2 nM
same,Toxicity Data Liver,Liver [16],3.58E-07

# From patent publication US7759345B2, “Antitumoral derivatives of ET-743” (priority 2001, dated 2010)
